What all share (format): cell-based
Assay [1] relates to type I interferon pathway (ISG) in human THP1-Blue-ISG cells. The experiment in a line: Activation of type I interferon pathway (ISG) in human THP1-Blue-ISG cells (Quanti-Blue, OD650). Particulars: 24 h, Compound OD650/Control OD650, ≥2 times considered valid; for fold induction at 10 µM / fold induction at 50 µM: Homo sapiens, THP1-Blue ISG, read-out: Fold Change. How it is done: 20 μL of compound diluted with physiological saline was added to each well of a 96-well cell culture plate, the positive control compound was ADU-S100, and the solvent control group was added with 20 μL of physiological saline containing DMSO. THP1-Blue-ISG cells were counted, the cell concentration was adjusted to 5×10^5/mL, and 180 μL of cells were added to each well for incubation. Therefore, the final volume of each test well was 200 μL, the content of DMSO was 0.1%/0.5%, the test concentration of the compound was 10/50 μM, and the positive control compound was ADU-S100 at a final concentration of 10 μM, and incubated for 24 hours for detection.
After 24 hours, 20 μL of the culture solution was took out from each well to a new 96-well plate, 180 μL of chromogenic solution Quanti-Blue was added, placed in a 37° C. incubator, and the OD650 value was measured after 0.5-2 hours. The experiment was repeated twice.
The experimental results were used to evaluate the ability of compounds to induce the secretion of type I interferon pathway (ISG) by the Fold Change, which was calculated as follows:
Fold Change=Compound OD650/Control OD650, wherein the results of ≥2 times were considered valid.

In assay [2] the test system is type I interferon pathway in murine Raw-lucia cells. The experiment in a line: Activation of type I interferon pathway in murine Raw-lucia cells (QUANTI-Luc luminescence). Particulars: Mus musculus, 24 h, Compound Luminescence/Control Luminescence, ≥2 times considered valid, read-out: Fold Change. The method, then: Raw-lucia cells were counted, the cell concentration was adjusted to 5×10^5/mL, and 180 μL of cells were added to each well for incubation. 20 μL of compound diluted with physiological saline was added to each well of a 96-well cell culture plate after cells were adhered, the concentration of the compound was 50 μM/100 μM.
After 24 hours, 20 μL of the culture medium was took out from each well to a new 96-well plate with bottom-transmitting, 50 μL of the luciferase detection reagent QUANTI-Luc™ was added, and the […] was measured immediately (in the dark). The experiment was repeated twice.

Assay [3] concerns type I interferon pathway (ISG) in human THP1-Blue-ISG cells. The experiment in a line: Activation of type I interferon pathway (ISG) in human THP1-Blue-ISG cells (Quanti-Blue, OD650). Particulars: 24 h, Compound OD650/Control OD650, ≥2 times considered valid, read-out: Fold Change.

For `O=C(O)CC(=O)c1cc(-c2c[nH]c3ccc(F)cc23)cs1` [Example I-4, 3-(4-(5-fluoro-1H-indol-3-yl)thiophen-2-yl)-3-oxopropionic acid], in assay [1] (10 μM), the fold induction at 10 µM turned out to be 9.95.
With `COC(=O)CC(=O)c1cc(-c2c[nH]c3ccc(OC)cc23)co1` [Example I-43, methyl 3-(4-(5-methoxy-1H-indol-3-yl)furan-2-yl)-3-oxopropanoate], the fold induction at 10 µM in assay [1] (10 μM) came to 23.3.
Regarding `O=C(O)CCC(=O)c1cc(-c2coc3ccccc23)cs1` [I′-14, 4-(4-(benzofuran-3-yl)thiophen-2-yl)-4-oxobutyric Acid], the fold induction at 100 µM in assay [2] worked out at 18.1. The fold induction at 25 µM in assay [3] (25 μM) was 20.7.
Turning to `COC(=O)CC(=O)c1cc(-c2c[nH]c3ccccc23)cs1` [Example I-16, methyl 3-(4-(1H-indol-3-yl)thiophen-2-yl)-3-oxopropionate], the fold induction at 10 µM in assay [1] (10 μM) was determined as 14.3.
Regarding `O=C(O)CCC(=O)c1cc(-c2cccc3sccc23)cs1` [I′-10, 4-(4-(benzo[b]thiophen-4-yl)thiophen-2-yl)-4-oxobutyric Acid], in assay [1], the fold induction at 50 µM is 15.1.
`O=C(O)CCC(=O)c1cc(-c2c[nH]c3c(F)cccc23)co1` [I′-58, 4-(4-(7-fluoro-1H-indol-3-yl)furan-2-yl)-4-oxobutyric Acid]: in assay [1] (10 μM), the fold induction at 10 µM came out at 4.14. Further, the fold induction at 100 µM in assay [2] was 14.2.
For `COC(=O)CC(=O)c1cc(-c2c[nH]c3c(F)cccc23)co1` [Example I-38, methyl 3-(4-(7-fluoro-1H-indol-3-yl)furan-2-yl)-3-oxopropanoate], the fold induction at 10 µM in assay [1] (10 μM) amounted to 77.2.
`COC(=O)CC(=O)c1cc(-c2c[nH]c3cccc(F)c23)co1` [Example I-39, methyl 3-(4-(4-fluoro-1H-indol-3-yl)furan-2-yl)-3-oxopropanoate]: the fold induction at 10 µM in assay [1] (10 μM) came to 59.5.
`COC(=O)CC(=O)c1cc(-c2c[nH]c3c(F)cccc23)cs1` [Example I-18, methyl 3-(4-(7-fluoro-1H-indol-3-yl)thiophen-2-yl)-3-oxopropanoate]: the fold induction at 10 µM in assay [1] (10 μM) came out at 9.8.
For `O=C(O)CCC(=O)c1cc(-c2c[nH]c3cccc(F)c23)cs1` [I′-51, 4-(4-(4-fluoro-1H-indol-3-yl)thiophen-2-yl)-4-oxobutyric Acid], the fold induction at 10 µM in assay [1] (10 μM) was found to be 5.27. For the same molecule, the fold induction at 100 µM in assay [2] turned out to be 9.75.
Regarding `O=C(O)CCC(=O)c1cc(-c2c[nH]c3ccc(F)cc23)cs1` [I′-48, 4-(4-(5-fluoro-1H-indol-3-yl)thiophen-2-yl)-4-oxobutyric Acid], the fold induction at 100 µM in assay [2] was 7.63. The fold induction at 30 µM in assay [3] worked out at 14.7.
For the molecule `O=C(O)CC(=O)c1cc(-c2c[nH]c3cc(F)ccc23)cs1` [Example I-2, 3-(4-(6-fluoro-1H-indol-3-yl)thiophen-2-yl)-3-oxopropionic acid], in assay [1] (10 μM), the fold induction at 10 µM stood at 11.
Take `O=C(O)CCC(=O)c1scc(-c2c[nH]c3ccccc23)c1F` [I′-56, 4-(3-fluoro-4-(1H-indol-3-yl)thiophen-2-yl)-4-oxobutyric Acid]: in assay [2], the fold induction at 50 µM was found to be 12.9. Besides, in assay [3], the fold induction at 30 µM was 14.9.
Take `O=C(O)CCC(=O)c1cc(-c2csc3ccccc23)cs1` [I′-4, 4-(4-(benzo[b]thiophen-3-yl)thiophen-2-yl)-4-oxobutyric Acid]: the fold induction at 50 µM in assay [1] turned out to be 18.4.
Consider `O=C(O)CCCC(=O)c1cc(-c2c[nH]c3c(F)cccc23)cs1` [Example I-14, 5-(4-(7-fluoro-1H-indol-3-yl)thiophen-2-yl)-5-oxopentanoic Acid], for which the fold induction at 50 µM in assay [1] stood at 1.96.
Regarding `O=C(O)CCC(=O)c1cc(-c2coc3c(F)cccc23)cs1` [I′-55, 4-(4-(7-fluorobenzofuran-3-yl)thiophen-2-yl)-4-oxobutyric Acid], the fold induction at 50 µM in assay [2] came to 12.2. Further, the fold induction at 30 µM in assay [3] was 16.
As to `COC(=O)CC(=O)c1cc(-c2c[nH]c3ccc(OC)cc23)cs1` [Example I-42, methyl 3-(4-(5-methoxy-1H-indol-3-yl)thiophen-2-yl)-3-oxopropanoate], in assay [1] (10 μM), the fold induction at 10 µM worked out at 61.8.
With `COC(=O)CC(=O)c1cc(-c2c[nH]c3cc(F)ccc23)cs1` [Example I-17, methyl 3-(4-(6-fluoro-1H-indol-3-yl)thiophen-2-yl)-3-oxopropionate], the fold induction at 10 µM in assay [1] (10 μM) stood at 11.
For `O=C(O)CC(=O)c1cc(-c2c[nH]c3ccccc23)cs1` [Example I-1, 3-(4-(1H-indol-3-yl)thiophen-2-yl)-3-oxopropionic Acid], the fold induction at 10 µM in assay [1] (10 μM) turned out to be 14.3.
With `COC(=O)CC(=O)c1cc(-c2c[nH]c3ccc(F)cc23)co1` [Example I-40, methyl 3-(4-(5-fluoro-1H-indol-3-yl)furan-2-yl)-3-oxopropanoate], the fold induction at 10 µM in assay [1] (10 μM) amounted to 53.7.
Same read-out and setting: for `O=C(O)CC(=O)c1cc(-c2c[nH]c3c(F)cccc23)cs1` [Example I-3, 3-(4-(7-fluoro-1H-indol-3-yl)thiophen-2-yl)-3-oxopropionic acid] the value was 9.82.
`COC(=O)CC(=O)c1cc(-c2coc3ccccc23)cs1` [Example I-26, methyl 3-(4-(benzofuran-3-yl)thiophen-2-yl)-3-oxopropanoate]: the fold induction at 20 µM in assay [3] (20 μM) stood at 14.6.
Regarding `COC(=O)CC(=O)c1cc(-c2coc3ccccc23)co1` [Example I-31, methyl 3-(4-(benzofuran-3-yl)furan-2-yl)-3-oxopropanoate], the fold induction at 30 µM in assay [3] was 43.2.
Consider `COC(=O)CCC(=O)c1cc(-c2c[nH]c3c(F)cccc23)cs1` [I′-50, Methyl 4-(4-(7-fluoro-1H-indol-3-yl)thiophen-2-yl)-4-oxobutyrate], for which, in assay [1] (10 μM), the fold induction at 10 µM turned out to be 68.1.
As to `Nc1ncnc2c1ncn2[C@@H]1O[C@@H]2COP(=O)([S-])O[C@@H]3[C@H](O)[C@@H](COP([O-])(=S)O[C@H]2[C@H]1O)O[C@H]3n1cnc2c(N)ncnc21.[Na+].[Na+]` (some centres unmarked) [ADU-S100, reference compound], the “Fold Change” value in assay [1] (10 μM) is reported as 12.45@10 μM.
On to `O=C(O)CCC(=O)c1cc(-c2c[nH]c3cc(F)ccc23)cs1` [I′-46, 4-(4-(6-fluoro-1H-indol-3-yl)thiophen-2-yl)-4-oxobutyric Acid], for which the fold induction at 10 µM in assay [1] (10 μM) turned out to be 11.3. In assay [2], the fold induction at 100 µM was determined as 31.4.
Regarding `COC(=O)CC(=O)c1cc(-c2c[nH]c3ccc(F)cc23)cs1` [Example I-19, methyl 3-(4-(5-fluoro-1H-indol-3-yl)thiophen-2-yl)-3-oxopropionate], the fold induction at 10 µM in assay [1] (10 μM) was 10.
Turning to `CC(CC(=O)c1cc(-c2coc3ccccc23)co1)C(=O)O` (centres unmarked) [I′-37, 4-(4-(benzofuran-3-yl)furan-2-yl)-2-methyl-4-oxobutyric Acid], in assay [2], the fold induction at 50 µM was 3.79.
For `COC(=O)CC(=O)c1cc(-c2c[nH]c3cc(F)ccc23)co1` [Example I-37, methyl 3-(4-(6-fluoro-1H-indol-3-yl)furan-2-yl)-3-oxopropanoate], in assay [1] (10 μM), the fold induction at 10 µM came to 71.5.
Regarding `O=C(O)CCCC(=O)c1cc(-c2c[nH]c3ccccc23)cs1` [Example I-13, 5-(4-(1H-indol-3-yl)thiophen-2-yl)-5-oxopentanoic Acid], in assay [3], the fold induction at 30 µM was determined as 12.6.
Turning to `O=C(O)CCC(=O)c1cc(-c2coc3ccc(F)cc23)cs1` [I′-54, 4-(4-(5-fluorobenzofuran-3-yl)thiophen-2-yl)-4-oxobutyric Acid], the fold induction at 100 µM in assay [2] was determined as 4.5.
For the molecule `O=C(O)CCC(=O)c1cc(-c2c[nH]c3cc(F)ccc23)co1` [I′-38, 4-(4-(6-fluoro-1H-indol-3-yl)furan-2-yl)-4-oxobutyric Acid], the fold induction at 10 µM in assay [1] (10 μM) is 7.15. Further, the fold induction at 50 µM in assay [2] was 7.1.
Take `O=C(O)CCC(=O)c1cc(-c2c[nH]c3c(F)cccc23)cs1` [I′-49, 4-(4-(7-fluoro-1H-indol-3-yl)thiophen-2-yl)-4-oxobutyric Acid]: the fold induction at 10 µM in assay [1] (10 μM) came to 10.3. In assay [2], the fold induction at 50 µM was determined as 36.2.
Consider `COC(=O)CC(=O)c1cc(-c2ccc(OC)c(OC)c2)co1` [Example I-34, methyl 3-(4-(3,4-dimethoxyphenyl)furan-2-yl)-3-oxopropanoate], for which, in assay [3], the fold induction at 30 µM was determined as 23.7.
Turning to `COC(=O)CC(=O)c1cc(-c2ccc3ccoc3c2)co1` [Example I-36, methyl 3-(4-(benzofuran-6-yl)furan-2-yl)-3-oxopropanoate], the fold induction at 30 µM in assay [3] turned out to be 29.7.
